melting point [°C] | Structure (SMILES)
130 | CN(CC=C(F)C(F)(F)C(F)(F)C(F)(F)F)CCCCCC1Cc2cc(O)ccc2C2C(F)CC3(C)C(O)CCC3C12 (stereo unspecified)
168 | O=c1c2ccccc2sc2cc(F)ccc12
168 to 172 | COC(=O)c1nc(-c2ccc(Cl)c(OC)c2F)cc(NC(C)=O)c1O
230 to 232 | CCOCc1nc2c(N)nc3ccccc3c2n1CC1(C(N)=O)CC1
255 to 257 | COC1CN(C(=O)c2cnn(C)c2C(=O)Nc2ccn3nc(-c4cccc(F)c4)nc3c2)C1
170 to 171 | CC(F)(F)c1cccc(C[C@@H](NC(=O)c2cccc3c2C=CCCC3)[C@@H](O)c2ccc(F)cc2)c1 (racemic)
178 to 182 | CC(C)(CN)c1ccc2nc(-c3ccc(O)cc3)[nH]c2c1
142 to 143 | Cc1ccc(-n2nc(C(C)(C)C)cc2NC(=O)Nc2ccc(OCCN3CCOCC3)c3ccccc23)cc1
127 | Cc1coc(C(=O)c2ccc(F)c(F)c2Nc2ccc(I)cc2F)n1
233 | Cn1ccc(NC(=O)Nc2cccc3c2C2CCCCN2C3=O)n1 (stereo unspecified)
145 | CCOC(=O)C1=C(C)NC(N=CN2CCCCC2)=C(C(=O)OCC)C1c1ccccc1Cl (stereo unspecified)
249 to 252 | CC(C)(C)C(NC(=O)c1ccc(Cl)cc1)Nc1c(Nc2cnc(F)c(Br)c2)c(=O)c1=O (stereo unspecified)
105 to 107 | CCc1cc(C[C@H](NC(=O)c2c(Cl)cccc2Cl)C(=O)O)ccc1-c1ccccc1OC
94 to 96 | C#CCOC(=O)Oc1ccc2ccc(OC(=O)OCC#C)cc2c1
45 to 46 | CC#CCOc1ccc(S(=O)(=O)NC(COCCBr)C(=O)OC)cc1 (stereo unspecified)
111 to 123 | O=C(NO)[C@H]1CN(C(=O)NC2CCCCC2)CCN1S(=O)(=O)c1ccc(-c2ccc(F)cc2)s1
157 to 159 | O=C(Nc1cccc(F)c1)c1ccccc1O
160 to 170 | O=C(O)c1ccc2c(-c3ccccc3)coc2c1
221 to 223 | CN1CCC(c2c[nH]c3ccc(NC(=O)c4ccccn4)nc23)CC1
263 to 265 | Cc1cc(C)c2nn3c(SCc4ccccc4)nc(N)nc3c2n1
204 to 206 | c1ccc(C2CN(CCCc3cccnc3)Cc3c2[nH]c2ccccc32)cc1 (stereo unspecified)
149 to 150 | C/C=C/C(=O)NC(=O)OC

melting point [°C] | Structure (SMILES)
247 to 249 | CC(C)(C)OC(=O)N[C@H]1CCN(c2nc3c(cc2F)c(=O)c(C(=O)O)cn3C2CC2)C1
72 to 74 | CCOC(=O)C(=Cc1cccc(O)c1)C(=O)OCC
122 to 123 | COc1cc(N)c2ncccc2c1OCc1ccc(Cl)cc1
166 | CC(C)(C)c1cc(C=CC(=O)NN)cc(C(C)(C)C)c1O
106 to 108 | CCC(=O)NCCC1CCc2cc(F)c3c(c21)C=CCO3 (stereo unspecified)
201 to 202 | Cc1c(S(=O)c2ccc([N+](=O)[O-])cc2)cc(C(C)(C)C)c(O)c1C(=O)O (stereo unspecified)
148 to 150 | COc1ccccc1Oc1c(Cl)nc(SC)nc1Cl
71 to 72 | O=C1CCC=C1c1ccc(Cl)cc1
106 to 109 | CS(=O)(=O)c1ccc(C(CC2CCOCC2)c2cnc(-c3ccccn3)[nH]2)cc1Cl (stereo unspecified)
152 to 153 | C=CCn1c(=O)n(-c2ccc3c(c2)OCO3)c2ncc([N+](=O)[O-])cc21
132 to 135 | CCNc1ccc(C(=O)OC)cc1
194 to 196 | CC(C1OCCO1)N(C)C(=O)Nc1nnc(S(=O)(=O)N(C)C)s1 (stereo unspecified)
271 to 272 | O=C1c2c(c(=O)n3nc(-c4ccccc4)cc3n2Cc2ccccc2)CN1c1ccccc1
196 to 197 | c1ccc(COc2ccc3c(c2)N=C(NCc2cccnc2)c2ccccc2N3)cc1
69 to 72 | CCCCCCCCCCc1ccc(CCC(N)(CO)CCO)cc1 (stereo unspecified)
68 to 70 | CCOc1ccc(C=CC(=O)OC)cc1
224 to 226 | O=C(O)CNC[C@H]1O[C@H](c2ccccc2Cl)c2cc(Cl)ccc2N(Cc2ccccc2)C1=O (relative stereo)
165 | CC1(C)OC(CCN)CC(CC(=O)O)O1 (stereo unspecified)
65 to 67 | CC(C)c1cc(-c2ccc(F)cc2)c(OCc2ccccc2)c(C(C)C)c1
233 to 234 | Cc1cc2oc(S(N)(=O)=O)cc2cn1
271 to 276 | COc1cc2c(Nc3ccc(Sc4nccn4C)c(Cl)c3)c(C#N)cnc2cc1OCCCCl
105 to 108 | COc1ccc(S(=O)(=O)c2ccc(OC)c(CC3CO3)c2)cc1CC1CO1 (stereo unspecified)

melting point [°C] | Structure (SMILES)
74 to 75 | CCCCCCCCCCOc1ccc2cc(C#CC(C)O)ccc2c1 (stereo unspecified)
146 to 147 | CCC(=O)Oc1ccc(C(=O)Nc2ccc3cc(CN4CCCC4)cnc3c2C)cc1
211 to 212 | COc1ccc(-c2cnc3[nH]cc(C(=O)NC4CCN(C(C)=O)C4)c3n2)cc1OC (stereo unspecified)
146 to 147 | CC1(C)SC(C)(C)N(C(=O)COc2ccc(Cl)cc2)C1C(=O)O (stereo unspecified)
145 to 148 | COC(=O)CCc1nc(I)ccc1O
131 | COc1cc(CC#N)c(CCNC(=O)C(F)(F)F)cc1OC
214 | Cc1cc(-c2ccc(OC3SCC(O)C(O)C3O)cn2)ccn1 (stereo unspecified)
200 to 202 | CCCc1ccc(CCCC(P(=O)(O)O)P(=O)(O)O)cc1
> 250 | C/C(=C\c1ccc(C(=O)Nc2nnn[nH]2)cc1)c1ccc2c(c1)C(C)(C)CCO2
147 to 148 | CNC(=O)/C=C/c1cccc(Br)c1
75.1 to 76.2 | CCOC(=O)COc1c(C=O)cccc1OC
141 to 142 | C=C1C(=O)N[C@@H](Cc2ccccc2)C(=O)N1C(C)C
217 to 219 | CCOC(=O)N1CCn2c(nc(-c3ccncn3)cc2=O)C(NCc2ccc(OC)cc2)C1 (racemic)
181 | CC(C)N1CCN(c2ccc(Nc3cc(-c4ccc5c(CCO)cn(C)c5c4)c(Cl)n4ccnc34)nc2)CC1
158 | CCCC1(C)C(=O)NC(=O)N1c1ccc(C)cc1 (stereo unspecified)
188 to 189 | Cc1cc2c(cc1C(F)(F)F)N(C(=O)Nc1cnc(OCc3ccccn3)c(C)c1)CC2
119 to 121 | COC(=O)C=C[C@@H](Cc1cn(CC=Cc2ccccc2)c2ccccc12)NC(=O)OC(C)(C)C
238 to 240 | O=C(c1cccs1)c1cnn2c(-c3cccc(N(C(=O)c4c(Cl)cccc4Cl)C(=O)c4c(Cl)cccc4Cl)c3)ccnc12
242 to 243 | Clc1cc(Cl)cc(Oc2cccc(-c3nnc(Nc4ccc(Cl)c(Cl)c4)s3)c2)c1
47 to 48 | CCCCc1cc(CCCC)n2ncc(Br)c2n1
126 to 128 | COc1ccc2c(-c3ccc(OCCN4CCOCC4)cc3)c(Cc3ccc(Cl)cc3)oc2c1

Structure (SMILES) | melting point [°C]
O=C(Nc1csc(Br)n1)C(Cl)(Cl)Cl | 77 to 80
N#Cc1nn(-c2c(Cl)cc(C(F)(F)F)cc2Cl)cc1-c1ccccc1C(F)(F)F | 142 to 143
O=C(Nc1cccc(CC(=O)OCc2ccccc2)c1)NC1C(=O)N(CC(=O)N2CCCC2)c2ccccc2N(c2ccccc2F)C1=O (stereo unspecified) | 104 to 106
CCCCCCC(C)(C)c1cc(O)c(C2=C(CO)CCC(C)C2)c(O)c1 (stereo unspecified) | 155 to 156
c1ccc2sc(C3CCNCC3)cc2c1 | 82 to 84
CCCN(c1cccc(-c2ccnc3c([N+](=O)[O-])cnn23)c1)S(C)(=O)=O | 165 to 167

Reference: a melting point compilation (Tetko et al.; mined from patent text by program, amines drawn as free bases though some values may be those of a salt)
